Source: ChEMBL document CHEMBL3885861, “Open TG-GATES”

Species: Rattus norvegicus
Test: Open TG-GATES - Regimen: Daily Repeat
Assay type: toxicity, organism-based, Sprague-Dawley
Design: regimen Daily Repeat, gender Male, age 6 weeks
Details: in vivo, po, route gavage; for APTT / Bas / Eos / Fbg / Hb / Ht / Lym / MCH / MCHC / MCV / Mono / Neu / PT / Plat / RBC / Ret / WBC: tissue Blood; for KIDNEY_L / KIDNEY_R / KIDNEY_TOTAL: tissue Kidney; for LIVER: tissue Liver; for A/G / ALP / ALT / AST / BUN / CRE / Ca / Cl / DBIL / GLC / IP / K / LDH / Na / PL / RALB / TBIL / TC / TG / TP / gamma-GTP: tissue Plasma
[1] = 300 mg/kg, 72 h, dose level Middle, time 3 day
[2] = 300 mg/kg, […], dose level Middle, time 7 day
[3] = 300 mg/kg, […], dose level Middle, time 14 day
[4] = 300 mg/kg, […], dose level Middle, time 28 day
[5] = 1000 mg/kg, 72 h, dose level High, time 3 day
[6] = 1000 mg/kg, […], dose level High, time 7 day
[7] = 1000 mg/kg, […], dose level High, time 14 day
[8] = 1000 mg/kg, […], dose level High, time 28 day

COc1ccc(Cl)cc1C(=O)NCCc1ccc(S(=O)(=O)NC(=O)NC2CCCCC2)cc1 [GLYBURIDE]
TERMINAL_BW [1]: 227.7 g
APTT [1]: 19.4 s
Bas [1]: 0%
Eos [1]: 1%
Fbg [1]: 222.4 mg/dL
Hb [1]: 13.3 g/dL
Ht [1]: 39.4%
Lym [1]: 79.6%
MCH [1]: 21.3 pg
MCHC [1]: 33.7%
MCV [1]: 63.2 fL
Mono [1]: 2.8%
Neu [1]: 16.4%
PT [1]: 12.4 s
Plat [1]: 120.5 x10_4/uL
RBC [1]: 624 x10_4/ul
Ret [1]: 5.4%
WBC [1]: 97.9 x10_2/uL
KIDNEY_L [1]: 1 g
KIDNEY_R [1]: 1 g
KIDNEY_TOTAL [1]: 2.1 g
LIVER [1]: 10.5 g
A/G [1]: 1.5
ALP [1]: 912.2 IU/L
ALT [1]: 40.4 IU/L
AST [1]: 65.4 IU/L
BUN [1]: 14.2 mg/dL
CRE [1]: 0.4 mg/dL
Ca [1]: 10.7 mg/dL
Cl [1]: 103 meq/L
DBIL [1]: 0.088 mg/dL
GLC [1]: 194.6 mg/dL
IP [1]: 7.1 mg/dL
K [1]: 3.8 meq/L
LDH [1]: 190.4 IU/L
Na [1]: 140.6 meq/L
PL [1]: 135.6 mg/dL
RALB [1]: 3.3 g/dL
TBIL [1]: 0.1 mg/dL
TC [1]: 72 mg/dL
TG [1]: 71.4 mg/dL
TP [1]: 5.4 g/dL
gamma-GTP [1]: 0.6 IU/L
TERMINAL_BW [2]: 262.8 g
TERMINAL_BW [3]: 322.5 g
TERMINAL_BW [4]: 400.8 g
APTT [2]: 20.6 s
Bas [2]: 0%
Eos [2]: 1%
Fbg [2]: 220.6 mg/dL
Hb [2]: 13.6 g/dL
Ht [2]: 40%
Lym [2]: 78.4%
MCH [2]: 20.6 pg
MCHC [2]: 34%
MCV [2]: 60.5 fL
Mono [2]: 2.4%
Neu [2]: 17.8%
PT [2]: 12.5 s
Plat [2]: 128.7 x10_4/uL
RBC [2]: 661.2 x10_4/ul
Ret [2]: 5.2%
WBC [2]: 99.5 x10_2/uL
APTT [3]: 21.4 s
Bas [3]: 0%
Eos [3]: 1%
Fbg [3]: 226.6 mg/dL
Hb [3]: 14.1 g/dL
Ht [3]: 41.1%
Lym [3]: 81.2%
MCH [3]: 20.5 pg
MCHC [3]: 34.4%
MCV [3]: 59.6 fL
Mono [3]: 3.2%
Neu [3]: 13.8%
PT [3]: 12.3 s
Plat [3]: 124.7 x10_4/uL
RBC [3]: 689.4 x10_4/ul
Ret [3]: 4.5%
WBC [3]: 105.4 x10_2/uL
APTT [4]: 21.1 s
Bas [4]: 0%
Eos [4]: 1%
Fbg [4]: 217.4 mg/dL
Hb [4]: 15 g/dL
Ht [4]: 42.8%
Lym [4]: 81.6%
MCH [4]: 19.6 pg
MCHC [4]: 34.9%
MCV [4]: 56.1 fL
Mono [4]: 2.2%
Neu [4]: 14.8%
PT [4]: 12.5 s
Plat [4]: 110.1 x10_4/uL
RBC [4]: 762.8 x10_4/ul
Ret [4]: 2.6%
WBC [4]: 109.6 x10_2/uL
KIDNEY_L [2]: 1.1 g
KIDNEY_R [2]: 1.1 g
KIDNEY_TOTAL [2]: 2.2 g
KIDNEY_L [3]: 1.2 g
KIDNEY_R [3]: 1.2 g
KIDNEY_TOTAL [3]: 2.5 g
KIDNEY_L [4]: 1.4 g
KIDNEY_R [4]: 1.3 g
KIDNEY_TOTAL [4]: 2.7 g
LIVER [2]: 12.1 g
LIVER [3]: 14 g
LIVER [4]: 16.8 g
A/G [2]: 1.5
ALP [2]: 861.6 IU/L
ALT [2]: 33.4 IU/L
AST [2]: 59.2 IU/L
BUN [2]: 14.6 mg/dL
CRE [2]: 0.4 mg/dL
Ca [2]: 10.8 mg/dL
Cl [2]: 102.4 meq/L
DBIL [2]: 0.084 mg/dL
GLC [2]: 195.6 mg/dL
IP [2]: 6.8 mg/dL
K [2]: 3.8 meq/L
LDH [2]: 163.8 IU/L
Na [2]: 140.6 meq/L
PL [2]: 140.6 mg/dL
RALB [2]: 3.3 g/dL
TBIL [2]: 0.1 mg/dL
TC [2]: 67.8 mg/dL
TG [2]: 87.6 mg/dL
TP [2]: 5.6 g/dL
gamma-GTP [2]: 1.2 IU/L
A/G [3]: 1.4
ALP [3]: 818.6 IU/L
ALT [3]: 40 IU/L
AST [3]: 64.2 IU/L
BUN [3]: 15.8 mg/dL
CRE [3]: 0.5 mg/dL
Ca [3]: 10.7 mg/dL
Cl [3]: 102.4 meq/L
DBIL [3]: 0.1 mg/dL
GLC [3]: 178 mg/dL
IP [3]: 6.8 mg/dL
K [3]: 4 meq/L
LDH [3]: 162.8 IU/L
Na [3]: 140.4 meq/L
PL [3]: 166.8 mg/dL
RALB [3]: 3.5 g/dL
TBIL [3]: 0.2 mg/dL
TC [3]: 80.8 mg/dL
TG [3]: 125 mg/dL
TP [3]: 6 g/dL
gamma-GTP [3]: 1.6 IU/L
A/G [4]: 1.3
ALP [4]: 681.2 IU/L
ALT [4]: 35.4 IU/L
AST [4]: 62.2 IU/L
BUN [4]: 15.4 mg/dL
CRE [4]: 0.5 mg/dL
Ca [4]: 10.5 mg/dL
Cl [4]: 104.4 meq/L
DBIL [4]: 0.1 mg/dL
GLC [4]: 213 mg/dL
IP [4]: 6.2 mg/dL
K [4]: 3.7 meq/L
LDH [4]: 150.8 IU/L
Na [4]: 142 meq/L
PL [4]: 140.6 mg/dL
RALB [4]: 3.4 g/dL
TBIL [4]: 0.2 mg/dL
TC [4]: 67.2 mg/dL
TG [4]: 114.4 mg/dL
TP [4]: 5.9 g/dL
gamma-GTP [4]: 0.6 IU/L
TERMINAL_BW [5]: 228 g
APTT [5]: 20.6 s
Bas [5]: 0%
Eos [5]: 1.2%
Fbg [5]: 221.4 mg/dL
Hb [5]: 13.5 g/dL
Ht [5]: 40.2%
Lym [5]: 79.2%
MCH [5]: 21.1 pg
MCHC [5]: 33.6%
MCV [5]: 62.9 fL
Mono [5]: 2.4%
Neu [5]: 16.4%
PT [5]: 12.3 s
Plat [5]: 120.1 x10_4/uL
RBC [5]: 640 x10_4/ul
Ret [5]: 5.2%
WBC [5]: 112.9 x10_2/uL
KIDNEY_L [5]: 1 g
KIDNEY_R [5]: 1 g
KIDNEY_TOTAL [5]: 2 g
LIVER [5]: 11.1 g
A/G [5]: 1.6
ALP [5]: 893.4 IU/L
ALT [5]: 36.4 IU/L
AST [5]: 61.4 IU/L
BUN [5]: 15.2 mg/dL
CRE [5]: 0.4 mg/dL
Ca [5]: 10.8 mg/dL
Cl [5]: 102.8 meq/L
DBIL [5]: 0.094 mg/dL
GLC [5]: 200.2 mg/dL
IP [5]: 6.7 mg/dL
K [5]: 4 meq/L
LDH [5]: 179.2 IU/L
Na [5]: 140.6 meq/L
PL [5]: 150.2 mg/dL
RALB [5]: 3.4 g/dL
TBIL [5]: 0.1 mg/dL
TC [5]: 74.4 mg/dL
TG [5]: 93.4 mg/dL
TP [5]: 5.5 g/dL
gamma-GTP [5]: 1 IU/L
TERMINAL_BW [6]: 260.9 g
TERMINAL_BW [7]: 308.1 g
TERMINAL_BW [8]: 392.8 g
APTT [6]: 19.8 s
Bas [6]: 0.2%
Eos [6]: 1%
Fbg [6]: 220 mg/dL
Hb [6]: 13.6 g/dL
Ht [6]: 40%
Lym [6]: 81%
MCH [6]: 20.7 pg
MCHC [6]: 34%
MCV [6]: 60.8 fL
Mono [6]: 2.2%
Neu [6]: 15.2%
PT [6]: 12.4 s
Plat [6]: 129 x10_4/uL
RBC [6]: 658.4 x10_4/ul
Ret [6]: 5.2%
WBC [6]: 109.6 x10_2/uL
APTT [7]: 20.5 s
Bas [7]: 0%
Eos [7]: 0.8%
Fbg [7]: 224.4 mg/dL
Hb [7]: 14 g/dL
Ht [7]: 40.6%
Lym [7]: 81%
MCH [7]: 20.7 pg
MCHC [7]: 34.6%
MCV [7]: 59.9 fL
Mono [7]: 2.4%
Neu [7]: 15.2%
PT [7]: 12.2 s
Plat [7]: 116.7 x10_4/uL
RBC [7]: 678.6 x10_4/ul
Ret [7]: 4.5%
WBC [7]: 129.3 x10_2/uL
APTT [8]: 20.5 s
Bas [8]: 0%
Eos [8]: 1%
Fbg [8]: 218.2 mg/dL
Hb [8]: 14.9 g/dL
Ht [8]: 42.8%
Lym [8]: 81.4%
MCH [8]: 19.5 pg
MCHC [8]: 34.8%
MCV [8]: 56 fL
Mono [8]: 2.4%
Neu [8]: 14.4%
PT [8]: 12.3 s
Plat [8]: 99 x10_4/uL
RBC [8]: 766.2 x10_4/ul
Ret [8]: 2.7%
WBC [8]: 123.6 x10_2/uL
KIDNEY_L [6]: 1.1 g
KIDNEY_R [6]: 1.1 g
KIDNEY_TOTAL [6]: 2.2 g
KIDNEY_L [7]: 1.2 g
KIDNEY_R [7]: 1.2 g
KIDNEY_TOTAL [7]: 2.4 g
KIDNEY_L [8]: 1.3 g
KIDNEY_R [8]: 1.4 g
KIDNEY_TOTAL [8]: 2.7 g
LIVER [6]: 12.5 g
LIVER [7]: 13.8 g
LIVER [8]: 16 g
A/G [6]: 1.4
ALP [6]: 962.2 IU/L
ALT [6]: 35 IU/L
AST [6]: 61.6 IU/L
BUN [6]: 16.2 mg/dL
CRE [6]: 0.4 mg/dL
Ca [6]: 10.8 mg/dL
Cl [6]: 102.6 meq/L
DBIL [6]: 0.1 mg/dL
GLC [6]: 212 mg/dL
IP [6]: 6.9 mg/dL
K [6]: 3.8 meq/L
LDH [6]: 169.4 IU/L
Na [6]: 140.8 meq/L
PL [6]: 151.4 mg/dL
RALB [6]: 3.3 g/dL
TBIL [6]: 0.2 mg/dL
TC [6]: 73 mg/dL
TG [6]: 123.6 mg/dL
TP [6]: 5.6 g/dL
gamma-GTP [6]: 1.4 IU/L
A/G [7]: 1.5
ALP [7]: 801.6 IU/L
ALT [7]: 33.4 IU/L
AST [7]: 56.8 IU/L
BUN [7]: 14.6 mg/dL
CRE [7]: 0.5 mg/dL
Ca [7]: 10.6 mg/dL
Cl [7]: 102.8 meq/L
DBIL [7]: 0.1 mg/dL
GLC [7]: 174.6 mg/dL
IP [7]: 6.7 mg/dL
K [7]: 3.7 meq/L
LDH [7]: 115 IU/L
Na [7]: 141 meq/L
PL [7]: 151 mg/dL
RALB [7]: 3.6 g/dL
TBIL [7]: 0.2 mg/dL
TC [7]: 72.4 mg/dL
TG [7]: 102.2 mg/dL
TP [7]: 5.9 g/dL
gamma-GTP [7]: 1.4 IU/L
A/G [8]: 1.4
ALP [8]: 552.4 IU/L
ALT [8]: 31.6 IU/L
AST [8]: 55.2 IU/L
BUN [8]: 16 mg/dL
CRE [8]: 0.5 mg/dL
Ca [8]: 10.3 mg/dL
Cl [8]: 103 meq/L
DBIL [8]: 0.098 mg/dL
GLC [8]: 230.2 mg/dL
IP [8]: 6.5 mg/dL
K [8]: 4.2 meq/L
LDH [8]: 131 IU/L
Na [8]: 141 meq/L
PL [8]: 153.2 mg/dL
RALB [8]: 3.5 g/dL
TBIL [8]: 0.2 mg/dL
TC [8]: 75.6 mg/dL
TG [8]: 102 mg/dL
TP [8]: 6 g/dL
gamma-GTP [8]: 0.8 IU/L
